Key:
[1] = target: GDP-bound HRAS wild-type protein (Homo sapiens, UniProt P01112); assay: Binding to HRAS by surface plasmon resonance (SPR), Single Cycle Kinetics; conditions: KD ratio, GDP-bound HRAS wild-type vs GDP-bound KRAS wild-type, SPR
[2] = target: GDP-bound NRAS wild-type protein (Homo sapiens, UniProt P01111); assay: Binding to NRAS by surface plasmon resonance (SPR), Single Cycle Kinetics; conditions: KD ratio, GDP-bound NRAS wild-type vs GDP-bound KRAS wild-type, SPR
GDP-bound NRAS wild-type protein, sequence (P01111 whole entry): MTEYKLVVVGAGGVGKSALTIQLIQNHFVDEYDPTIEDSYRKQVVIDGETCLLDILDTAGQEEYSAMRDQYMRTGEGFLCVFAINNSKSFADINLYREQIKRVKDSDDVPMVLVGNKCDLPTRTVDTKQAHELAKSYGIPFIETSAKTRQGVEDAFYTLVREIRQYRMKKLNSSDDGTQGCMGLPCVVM

GDP-bound HRAS wild-type protein, sequence (P01112 whole entry): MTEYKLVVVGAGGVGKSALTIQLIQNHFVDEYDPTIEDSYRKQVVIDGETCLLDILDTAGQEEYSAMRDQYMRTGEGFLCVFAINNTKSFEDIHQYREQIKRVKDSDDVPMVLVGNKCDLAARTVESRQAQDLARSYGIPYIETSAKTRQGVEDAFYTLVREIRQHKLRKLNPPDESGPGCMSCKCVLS

| SMILES | HRAS/KRAS (ratio of KD value with respect to HRAS to KD value with respect to KRAS) [1] | NRAS/KRAS (ratio of KD value with respect to NRAS to KD value with respect to KRAS) [2] |
| --- | --- | --- |
| CCO[C@@H]1C[C@H]2C(=O)NC3(CCC3)C(=O)N(C)[C@@H](C3CCCC3)C(=O)N(C)[C@H](C(=O)N(C)C)CC(=O)N(C)[C@@H](CC)C(=O)N[C@@H]([C@@H](C)CC)C(=O)N3CC[C@H]3C(=O)N(C)[C@H]3CC(C)=C(C)CN(C3=O)[C@@H](Cc3ccc(C(F)(F)F)cc3)C(=O)N(C)CC(=O)N[C@@H](CCc3cc(F)c(C(F)(F)F)c(F)c3)C(=O)N2C1 [PP1049] | C (A compound having a KD ratio of 0.1 or more and less than 3 is denoted as C) | C (A compound having a KD ratio of 0.1 or more and less than 3 is denoted as C) |
| CCO[C@@H]1C[C@H]2C(=O)NC3(CCCC3)C(=O)N(C)[C@@H](C3CCCC3)C(=O)N(C)[C@H](C(=O)N(C)C)CC(=O)N(C)[C@@H](CC)C(=O)N[C@@H]([C@@H](C)CC)C(=O)N(C)CC(=O)N(C)[C@H]3CC(C)=C(C)CN(C3=O)[C@@H](Cc3ccc(C(F)(F)F)cc3)C(=O)N(C)CC(=O)N[C@@H](CCc3cc(F)c(C(F)(F)F)c(F)c3)C(=O)N2C1 [PP1050] | C (A compound having a KD ratio of 0.1 or more and less than 3 is denoted as C) | C (A compound having a KD ratio of 0.1 or more and less than 3 is denoted as C) |
| CCO[C@@H]1C[C@H]2C(=O)NC3(CCC3)C(=O)N(C)[C@@H](C3CCCC3)C(=O)N(C)[C@H](C(=O)N(C)C)CC(=O)N(CC)[C@@H](CC(C)C)C(=O)N[C@@H]([C@@H](C)CC)C(=O)N(C)CC(=O)N(C)[C@H]3CC(C)=C(C)CN(C3=O)[C@@H](Cc3ccc(C(F)(F)F)cc3)C(=O)N(C)CC(=O)N[C@@H](CCc3cc(F)c(C(F)(F)F)c(F)c3)C(=O)N2C1 [PP1051] | C (A compound having a KD ratio of 0.1 or more and less than 3 is denoted as C) | C (A compound having a KD ratio of 0.1 or more and less than 3 is denoted as C) |
| CCO[C@@H]1C[C@H]2C(=O)NC3(CCC3)C(=O)N(C)[C@@H](C3CCCC3)C(=O)N(C)[C@H](C(=O)N(C)C)CC(=O)N(C)[C@@H](CC)C(=O)N[C@@H]([C@@H](C)CC)C(=O)N(CC)CC(=O)N(C)[C@H]3C/C=C\CCN(C3=O)[C@@H](Cc3ccc(C(F)(F)F)cc3)C(=O)N(C)CC(=O)N[C@@H](CCc3cc(F)c(C(F)(F)F)c(F)c3)C(=O)N2C1 [PP1052] | A (a compound having 10 or more and less than 20 is denoted as A) | A (a compound having 10 or more and less than 20 is denoted as A) |
| CCCN1CC(=O)N(C)[C@H]2C/C=C\CCN(C2=O)[C@@H](Cc2ccc(C(F)(F)F)cc2)C(=O)N(C)CC(=O)N[C@@H](CCc2cc(F)c(C(F)(F)F)c(F)c2)C(=O)N2C[C@H](OCC)C[C@H]2C(=O)NC2(CCC2)C(=O)N(C)[C@@H](C2CCCC2)C(=O)N(C)[C@H](C(=O)N(C)C)CC(=O)N(C)[C@@H](CC)C(=O)N[C@@H]([C@@H](C)CC)C1=O [PP1053] | A (a compound having 10 or more and less than 20 is denoted as A) | A (a compound having 10 or more and less than 20 is denoted as A) |
| CCO[C@@H]1C[C@H]2C(=O)NC3(CCC3)C(=O)N(C)[C@@H](C3CCCC3)C(=O)N(C)[C@H](C(=O)N(C)C)CC(=O)N(C)[C@@H](CC)C(=O)N[C@@H]([C@@H](C)CC)C(=O)N(C)[C@@H](C)C(=O)N(C)[C@H]3C/C=C\CCN(C3=O)[C@@H](Cc3ccc(C(F)(F)F)cc3)C(=O)N(C)CC(=O)N[C@@H](CCc3cc(F)c(C(F)(F)F)c(F)c3)C(=O)N2C1 [PP1054] | B (a compound having 3 or more and less than 10 is denoted as B) | A (a compound having 10 or more and less than 20 is denoted as A) |
| CCO[C@@H]1C[C@H]2C(=O)NC3(CCC3)C(=O)N(C)[C@@H](C3CCCC3)C(=O)N(C)[C@H](C(=O)N(C)C)CC(=O)N(C)[C@@H](CC)C(=O)N[C@@H]([C@@H](C)CC)C(=O)N3CCC[C@H]3C(=O)N(C)[C@H]3C/C=C\CCN(C3=O)[C@@H](Cc3ccc(C(F)(F)F)cc3)C(=O)N(C)CC(=O)N[C@@H](CCc3cc(F)c(C(F)(F)F)c(F)c3)C(=O)N2C1 [PP1056] | A (a compound having 10 or more and less than 20 is denoted as A) | A (a compound having 10 or more and less than 20 is denoted as A) |
| CCO[C@@H]1C[C@H]2C(=O)NC3(CCC3)C(=O)N(C)[C@@H](C3CCCC3)C(=O)N(C)[C@H](C(=O)N(C)C)CC(=O)N(C)[C@@H](CC)C(=O)N[C@@H]([C@@H](C)CC)C(=O)N3C[C@H](OCC)C[C@H]3C(=O)N(C)[C@H]3C/C=C\CCN(C3=O)[C@@H](Cc3ccc(C(F)(F)F)cc3)C(=O)N(C)CC(=O)N[C@@H](CCc3cc(F)c(C(F)(F)F)c(F)c3)C(=O)N2C1 [PP1057] | B (a compound having 3 or more and less than 10 is denoted as B) | A (a compound having 10 or more and less than 20 is denoted as A) |
| CCO[C@@H]1C[C@H]2C(=O)NC3(CCC3)C(=O)N(C)[C@@H](C3CCCC3)C(=O)N(C)[C@H](C(=O)N(C)C)CC(=O)N(C)[C@@H](CC)C(=O)N[C@@H]([C@@H](C)CC)C(=O)N3CCCC[C@H]3C(=O)N(C)[C@H]3C/C=C\CCN(C3=O)[C@@H](Cc3ccc(C(F)(F)F)cc3)C(=O)N(C)CC(=O)N[C@@H](CCc3cc(F)c(C(F)(F)F)c(F)c3)C(=O)N2C1 [PP1058] | B (a compound having 3 or more and less than 10 is denoted as B) | A (a compound having 10 or more and less than 20 is denoted as A) |
| CCO[C@@H]1C[C@H]2C(=O)NC3(CCC3)C(=O)N(C)[C@@H](C3CCCC3)C(=O)N(C)[C@H](C(=O)N(C)C)CC(=O)N(C)[C@@H](CC)C(=O)N[C@@H]([C@@H](C)CC)C(=O)N3CCSC[C@H]3C(=O)N(C)[C@H]3C/C=C\CCN(C3=O)[C@@H](Cc3ccc(C(F)(F)F)cc3)C(=O)N(C)CC(=O)N[C@@H](CCc3cc(F)c(C(F)(F)F)c(F)c3)C(=O)N2C1 [PP1060] | A (a compound having 10 or more and less than 20 is denoted as A) | A (a compound having 10 or more and less than 20 is denoted as A) |
| CCO[C@@H]1C[C@H]2C(=O)NC3(CCC3)C(=O)N(C)[C@@H](C3CCCC3)C(=O)N(C)[C@H](C(=O)N(C)C)CC(=O)N(C)[C@@H](CC)C(=O)N[C@@H]([C@@H](C)CC)C(=O)N3CC[C@@H]3C(=O)N(C)[C@H]3C/C=C\CCN(C3=O)[C@@H](Cc3ccc(C(F)(F)F)cc3)C(=O)N(C)CC(=O)N[C@@H](CCc3cc(F)c(C(F)(F)F)c(F)c3)C(=O)N2C1 [PP1064] | A (a compound having 10 or more and less than 20 is denoted as A) | A (a compound having 10 or more and less than 20 is denoted as A) |
| CCO[C@@H]1C[C@H]2C(=O)NC3(CCC3)C(=O)N(C)[C@@H](C3CCCC3)C(=O)N(C)[C@H](C(=O)N(C)C)CC(=O)N(C)[C@@H](CC)C(=O)N[C@@H]([C@@H](C)CC)C(=O)N[C@@H](C)C(=O)N(C)[C@H]3C/C=C\CCN(C3=O)[C@@H](Cc3ccc(C(F)(F)F)cc3)C(=O)N(C)CC(=O)N[C@@H](CCc3cc(F)c(C(F)(F)F)c(F)c3)C(=O)N2C1 [PP1065] | B (a compound having 3 or more and less than 10 is denoted as B) | A (a compound having 10 or more and less than 20 is denoted as A) |
| CC[C@H](C)[C@@H]1NC(=O)[C@H](CC(C)C)N(C)C(=O)C[C@@H](C(=O)N2CCOCC2)N(C)C(=O)[C@H](C2CCCC2)N(C)C(=O)C2(CCC2)NC(=O)[C@@H]2[C@@H](OC)CCN2C(=O)[C@H](CCc2cc(F)c(C(F)(F)F)c(F)c2)NC(=O)CN(C)C(=O)[C@H](Cc2ccc(C(F)(F)F)cc2)N2CCCCC[C@@H](C2=O)N(C)C(=O)CN(C)C1=O [PP1067] | B (a compound having 3 or more and less than 10 is denoted as B) | B (a compound having 3 or more and less than 10 is denoted as B) |
| CCO[C@H]1CCN2C(=O)[C@H](CCc3cc(F)c(C(F)(F)F)c(F)c3)NC(=O)CN(C)C(=O)[C@H](Cc3ccc(C(F)(F)F)cc3)N3CCCCC[C@@H](C3=O)N(C)C(=O)CN(C)C(=O)[C@H]([C@@H](C)CC)NC(=O)[C@H](CC(C)C)N(C)C(=O)C[C@@H](C(=O)N3CCOCC3)N(C)C(=O)[C@H](C3CCCC3)N(C)C(=O)C3(CCC3)NC(=O)[C@H]12 [PP1068] | B (a compound having 3 or more and less than 10 is denoted as B) | A (a compound having 10 or more and less than 20 is denoted as A) |
| CCCO[C@H]1CCN2C(=O)[C@H](CCc3cc(F)c(C(F)(F)F)c(F)c3)NC(=O)CN(C)C(=O)[C@H](Cc3ccc(C(F)(F)F)cc3)N3CCCCC[C@@H](C3=O)N(C)C(=O)CN(C)C(=O)[C@H]([C@@H](C)CC)NC(=O)[C@H](CC(C)C)N(C)C(=O)C[C@@H](C(=O)N3CCOCC3)N(C)C(=O)[C@H](C3CCCC3)N(C)C(=O)C3(CCC3)NC(=O)[C@H]12 [PP1069] | B (a compound having 3 or more and less than 10 is denoted as B) | A (a compound having 10 or more and less than 20 is denoted as A) |
